Laboratory results: patent EP3434255A1, “IONTOPHORESIS METHOD, COMPOSITION AND KIT FOR DELIVERING N-ACETYL-3-TRIFLUOROMETHYL-PHENYL-(VALINE-GLYCINE) THROUGH THE SKIN” (priority 2017, dated 2019)

Columns and labels:
pKa of the active agent = type: physicochemical
[1] = test system: Dermatomed porcine ear skin; type: in vitro ADME; conditions: 1 % w/v in HEPES buffer (pH 7.15) containing 25 mM sodium chloride
Method: Untreated porcine ears were procured from a local slaughter house. Dorsal side of the porcine ears was used for the study.. For study #4, dermatomed porcine skin was prepared by dermatoming full thickness skin using Dermatome 75 mm (Nouvag AG TCM 3000, Goldach, Switzerland).
Dermatome is a surgical instrument used to produce thin slices of skin. Dermatoming is refering to the procedure to produce thin layers of the skin by using such device.
In vitro permeation study was performed using Franz diffusion cells (PermeGear V6 station vertical cell). These models contain 6 diffusion cells in each console with 5 ml receptor volume and 9 mm orifice. The diffusion area was 0.64 cm^2.
After washing the cells, receptor solution was left overnight and replaced with fresh sodium chloride solution (0.9 % w/v), 30 minutes prior to mounting the skin. The receptor chamber temperature was maintained at 37°C by the built-in water circulation jacket so as to attain the skin temperature of 32°C.
Skin pieces were then mounted between the donor and receptor compartment (containing 0.9 % (w/v) sodium chloride solution) of Franz diffusion cells with the stratum corneum facing towards the donor side.
The formulation (160 mg formulation containing 1.6 mg active/0.64 sq.cm) was applied in the donor chamber using a positive displacement pipette (Rainin PosD). Simplex formulation was applied in the donor chamber. The donor compartment was left open to mimic in vivo conditions. Six replicates (with the exception of preliminary study 4) were performed for each formulation for each test group (iontophoresis and corresponding passive control - "no current" group) as specified in Table 1 as follows. In the Table 1, the "active agent" is N-acetyl-3-trifluoromethyl-phenyl-(valine-glycine).
Current (0.2 mA/sq.) was applied using silver/silver chloride electrode system and a constant current source (Keithley®; Keithley Instruments, Cleveland, OH, USA). […] Current application was monitored with a chronometer. […]
Receptor samples were taken after stopping the current for the defined duration, which was 20 min in all the studies except study #4, in which sampling was performed at 5, 10, 20, 60, 120, and 240 min. […] The receptor samples were filtered and quantified with methanol calibration using LCMS.
All samples were analyzed by a validated LCMS method which was performed on an Agilent 6410 Triple Quad System to determine how much of the cosmetic agent passed into and through the skin.
Results of the studies were plotted as average amount of active permeated in receptor, quantity of the active in tape strips, and underlying skin for each test group (passive or iontophoresis treatment group). […]

pKa (pKa of the active agent): 3.3 | average cumulative amount of active delivered after 20 min ([1]; anodal iontophoresis 0.2 mA/sq.cm compared with passive and cathodal iontophoresis, p<0.05): significantly higher | permeation of the active agent through dermatomed porcine skin over 4 h study duration ([1]; anodal iontophoresis 0.2 mA/sq.cm for 2 h compared with passive and cathodal iontophoresis, p<0.05): significantly enhance | cumulative active permeation after 20 min ([1]; cathodal iontophoresis 0.2 mA/sq.cm compared with passive, p>0.05): no significant difference | cumulative active permeation after 4 h ([1]; cathodal iontophoresis 0.2 mA/sq.cm for 2 h compared with passive, p>0.05): no significant difference
SMILES: CC(=O)N(c1cccc(C(F)(F)F)c1)C(C(=O)NCC(=O)O)C(C)C (centres unmarked) [active agent, N-acetyl-3-trifluoromethyl-phenyl-(valine-glycine)]
